# Data published in article PMC9293752, “Cholenic acid derivative UniPR1331 impairs tumor angiogenesis via blockade of VEGF/VEGFR2 in addition to Eph/ephrin” (Cancer Gene Therapy, 2021).
# Target: T1, VEGFR2 (Homo sapiens, UniProt P35968)
# T1 construct: gene KDR; monomeric recombinant form of the extracellular portion of VEGFR2 fused to Fc
# Experiment: SPR (BIAcore X100), steady-state Scatchard analysis; supported by VEGF/VEGFR2 ELISA displacement (IC50 […])
# Format: binding
# T1 sequence (P35968 20-764 limits assumed): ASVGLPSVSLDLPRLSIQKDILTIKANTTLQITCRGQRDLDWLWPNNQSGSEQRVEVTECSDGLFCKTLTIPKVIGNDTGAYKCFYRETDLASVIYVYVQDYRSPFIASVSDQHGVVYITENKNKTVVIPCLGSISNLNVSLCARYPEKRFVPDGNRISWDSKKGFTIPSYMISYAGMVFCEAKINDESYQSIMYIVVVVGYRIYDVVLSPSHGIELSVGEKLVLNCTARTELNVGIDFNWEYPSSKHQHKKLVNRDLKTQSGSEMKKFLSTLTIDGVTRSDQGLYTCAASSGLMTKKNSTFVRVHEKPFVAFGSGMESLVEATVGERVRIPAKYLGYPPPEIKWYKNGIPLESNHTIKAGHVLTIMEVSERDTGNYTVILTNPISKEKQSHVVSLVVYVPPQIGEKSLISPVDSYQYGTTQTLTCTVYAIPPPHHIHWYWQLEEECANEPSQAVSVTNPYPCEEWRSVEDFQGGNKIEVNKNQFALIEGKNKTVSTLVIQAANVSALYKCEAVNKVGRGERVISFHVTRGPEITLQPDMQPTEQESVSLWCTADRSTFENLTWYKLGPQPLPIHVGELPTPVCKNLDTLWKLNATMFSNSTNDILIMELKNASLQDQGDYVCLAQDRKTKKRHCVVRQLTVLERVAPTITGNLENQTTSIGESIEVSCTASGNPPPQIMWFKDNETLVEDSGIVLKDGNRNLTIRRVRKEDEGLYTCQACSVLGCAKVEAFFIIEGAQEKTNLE
smiles,measurement,value
C[C@H](CCC(=O)N[C@@H](Cc1c[nH]c2ccccc12)C(=O)O)[C@H]1CC[C@H]2[C@@H]3CC=C4C[C@@H](O)CC[C@]4(C)[C@H]3CC[C@]12C [UniPR1331],Kd,62.2 ± 2.1 µM
